Experiment [1] concerns the target AKT1 mutant with enlarged ATP binding pocket (Homo sapiens, UniProt P31749, M227G). The note with it: cited from earlier work.
Another experiment has as its target T1, Akt1M-G (Homo sapiens, UniProt P31749, M227G).
T1 construct: expressed in transfected cells
Kind of experiment: Preliminary fluorogenic experiment with nanoparticle loaded with TNP-A*TP and alexa-fluo-647-ATP. The class given is cell-based. The note with it: nanoparticle with TNP-A*TP and alexa-fluo-647-ATP 10:1. As for the experimental part: The cells transfected with Akt1M-G or WT Akt1 expression vectors were treated with the nanoparticle. Alexa-fluo-647-ATP signal monitored nanoparticle delivery in all cells (FIG. 10A-D).

The target of experiment [2] is T2, wild type AKT1 (Homo sapiens, UniProt P31749). The following applies: in vitro; cited from earlier work.
Target sequence in this assay (P31749 whole entry, species assumed): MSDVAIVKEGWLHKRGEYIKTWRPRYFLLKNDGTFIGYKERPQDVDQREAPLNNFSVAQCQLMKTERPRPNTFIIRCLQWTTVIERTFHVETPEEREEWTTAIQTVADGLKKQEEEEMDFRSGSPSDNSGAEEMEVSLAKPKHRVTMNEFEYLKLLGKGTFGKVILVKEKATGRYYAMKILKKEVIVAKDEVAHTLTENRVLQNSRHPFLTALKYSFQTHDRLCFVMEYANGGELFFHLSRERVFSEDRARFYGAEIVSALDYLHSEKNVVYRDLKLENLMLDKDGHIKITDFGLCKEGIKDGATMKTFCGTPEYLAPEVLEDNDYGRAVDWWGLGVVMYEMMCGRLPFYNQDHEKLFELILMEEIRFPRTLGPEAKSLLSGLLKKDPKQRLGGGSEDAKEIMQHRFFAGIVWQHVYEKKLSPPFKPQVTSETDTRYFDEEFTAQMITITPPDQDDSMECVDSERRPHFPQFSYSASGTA
In the next experiment the target is T3, mutant AKT1 (M227G) (Homo sapiens, UniProt P31749, M227G).
T3 construct: mutagenesis by GENEWIZ pcDNA3-myr-HA-AKT1 1036; host or cells: HCT116
T3 sequence (P31749 whole entry M227G): as the sequence (P31749 whole entry, species assumed) above, with M227G counted along it
Kind of experiment: Intracellular A*TPγS delivery and thio-phosphorylation assay, cells transfected with mutant AKT1. The class given is cell-based. The protocol:
(§1) Plasmid constructs. Wild type AKT1 plasmid was purchased from Addgene (Addgene plasmid pcDNA3-myr-HA-AKT1 1036). Point mutation as in references (37) of the ATP-binding pocket gatekeeper amino acid (M227G) were introduced by GENEWIZ (New Jersey, USA), with a modified Strategene QuikChange® site-directed mutagenesis method.
(§2) Expression plasmid transfection. The HCT116 cells were plated into […] dishes and transfected at approximately 90% confluence with the specified plasmid (wild type pcDNA3-myr-HA-AKT1 plasmid or the mutant pcDNA3-myr-HA-AKT1 plasmid) using BP-Fectin mammalian cell transfection reagent (BioPioneer, USA) in accordance with the manufacturer's instructions. One untransfected dish was used as a negative control. After 72 hours, cells were washed twice with cold PBS. Transfection efficacy was confirmed by western-blot measurement of the expression of the HA-tagged fusion proteins with the HA tag monoclonal antibody (Thermo Fisher Scientific, USA).
(§3) Intracellular A*TPγS delivery and thio-phosphorylation assays. Control and transfected HCT116 cells were incubated with A*TPγS-loaded LCP nanoparticles for 4 hours. The cells were washed by cold PBS twice and then lysed with RIPA buffer (which contains protease and phosphatase inhibitors) for 30 minutes at 4° C. The cell lysates were treated with 2.5 mM PNBM at room temperature for 1 hour. Then, the PNBM treated cell lysates were analyzed with a western blot assay to measure protein thio-phosphorylation with the anti-thiophosphate ester rabbit monoclonal antibodies (Abcam, USA).
Immunoprecipitation assays. The PNBM-treated cell lysates were pre-cleaned by an off-target antibody. Then the cleaned cell lysates were incubated with 10 μL anti-thiophosphate ester rabbit monoclonal antibody (Abcam, USA) at 4° C. for 12 hours. 100 μL protein G beads (Thermo Fisher Scientific, USA) were mixed under rotary agitation at 4° C. for 4 hours, washed twice by wash buffer, and the beads were collected. […]
(§4) Western blotting assay. First, total protein concentrations of the cell lysates were determined by a BCA protein assay kit (Thermo, USA). […]

For the next experiment, the target named is T4, AKT2 (Homo sapiens, UniProt P31751).
T4 construct: expressed in transfected cells; host or cells: HCT116
T4 sequence (P31751 whole entry): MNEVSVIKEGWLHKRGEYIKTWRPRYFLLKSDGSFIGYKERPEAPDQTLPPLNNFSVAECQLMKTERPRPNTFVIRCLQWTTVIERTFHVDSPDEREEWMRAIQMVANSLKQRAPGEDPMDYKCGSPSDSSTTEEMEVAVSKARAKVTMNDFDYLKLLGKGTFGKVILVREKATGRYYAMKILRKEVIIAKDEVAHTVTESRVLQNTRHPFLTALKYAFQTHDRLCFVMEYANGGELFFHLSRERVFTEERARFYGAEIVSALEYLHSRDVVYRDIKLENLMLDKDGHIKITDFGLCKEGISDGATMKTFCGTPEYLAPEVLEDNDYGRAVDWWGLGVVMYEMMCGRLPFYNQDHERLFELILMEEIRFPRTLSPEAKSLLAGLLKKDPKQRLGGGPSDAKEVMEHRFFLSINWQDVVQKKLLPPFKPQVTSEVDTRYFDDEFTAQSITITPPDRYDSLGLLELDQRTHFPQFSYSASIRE
Kind of experiment: Live cell AKT substrate tagging, cells transfected with WT AKT2. The class given is cell-based. The note with it: HCT116 cells, WT-AKT expression vector (AKT1 and AKT2 stated together), A*TPγS delivery. The protocol:
as §3
(§5) Immunoprecipitation assays. The PNBM-treated cell lysates were pre-cleaned by an off-target antibody. Then the cleaned cell lysates were incubated with 10 μL anti-thiophosphate ester rabbit monoclonal antibody (Abcam, USA) at 4° C. for 12 hours. 100 μL protein G beads (Thermo Fisher Scientific, USA) were mixed under rotary agitation at 4° C. for 4 hours, washed twice by wash buffer, and the beads were collected. Then, proteins were captured in the beads and released by elution buffer. The elution buffer was collected and stored at −80° C.
(§6) Western blotting assay. First, total protein concentrations of the cell lysates were determined by a BCA protein assay kit (Thermo, USA). Protein extracts were separated by SDS-PAGE, then transferred onto a nitrocellulose membrane (NC membrane). […]

The target in the next experiment is T5, AKT2^M-G (Homo sapiens, UniProt P31751, M229G).
T5 construct: expressed in transfected cells; host or cells: HCT116
T5 sequence (P31751 whole entry M229G): as the sequence (P31751 whole entry) above, with M229G counted along it
Kind of experiment: Live cell AKT substrate tagging, cells transfected with AKT2^M-G. The class given is cell-based. The note with it: HCT116 cells, AKT^M-G expression vector (AKT1 and AKT2 stated together), A*TPγS delivery. The protocol: as §3, §5, §6

For experiment [3], the target named is T2, wild type AKT1. Kind of experiment: Intracellular A*TPγS delivery and thio-phosphorylation assay, cells transfected with wild type AKT1. Details: host or cells: HCT116. The class given is cell-based. As for the experimental part:
as §1, §2
Target sequence in this assay (P31749 whole entry): as the sequence (P31749 whole entry, species assumed) above
Intracellular A*TPγS delivery and thio-phosphorylation assays. […] Then, the PNBM treated cell lysates were analyzed with a western blot assay to measure protein thio-phosphorylation with the anti-thiophosphate ester rabbit monoclonal antibodies (Abcam, USA). […]
as §4

T1 sequence (P31749 whole entry M227G): as the sequence (P31749 whole entry, species assumed) above, with M227G counted along it
Chain of AKT1 mutant with enlarged ATP binding pocket (P31749 whole entry M227G): as the sequence (P31749 whole entry, species assumed) above, with M227G counted along it

As for `O=P(O)(O)OP(=O)(O)OP(=O)(O)OC[C@H]1O[C@@H](n2cnc3c(NCc4ccccc4)ncnc32)[C@H](O)[C@@H]1O` [A*TP, N^6-Benzyl-ATP], the “binding to AKT1 mutant with enlarged ATP binding pocket” value in experiment [1] was “has been shown to bind”.
As to TNP-N^6-Benzyl-ATP [TNP-A*TP], the “TNP-A*TP fluorescence signal, subcellular localization” value on Akt1M-G (Akt1M-G-expressing cells) was “localized mainly to cell membrane”. Moreover, on Akt1M-G (cells transfected with Akt1M-G or WT Akt1 vectors), the “TNP-A*TP fluorescence signal, specificity” value is listed as “specific to Akt1M-G-expressing cells”.
Turning to `Nc1ncnc2c1ncn2[C@@H]1O[C@H](COP(=O)(O)OP(=O)(O)OP(O)(O)=S)[C@@H](O)[C@H]1O` [ATPγS], on wild type AKT1 [2], the “utilization by wild type AKT1 to tag substrate GSK3β” value is on record as “can be utilized by wild type AKT1 to tag its substrate GSK3β in vitro”.
In the case of “N^6-Benzyladenosine-5′-(3-thiotriphosphate) [A*TPγS]”, the “AKT1 auto-thiophosphorylation: HA-tag Western blot of anti-thiophosphate-ester immunoprecipitant” value at mutant AKT1 (M227G) (HCT116 cells, mutant AKT1 vector, A*TPγS-loaded LCP nanoparticle 4 hours, PNBM alkylation) is reported as “detected”; on wild type AKT1 [3] (HCT116 cells, wild type AKT1 vector, A*TPγS-loaded LCP nanoparticle 4 hours, PNBM alkylation), “not detected”. Also, the “thiophosphorylation of AKT1 substrate IKKalpha: IKKalpha Western blot of anti-thiophosphate-ester immunoprecipitant” value on mutant AKT1 (M227G) (HCT116 cells, mutant AKT1 vector, A*TPγS-loaded LCP nanoparticle, PNBM alkylation) is “detected”. In addition, the “proteins immunoprecipitated by thiophosphate ester antibody (SDS-PAGE, silver blue coomassie stain)” value is reported as “immunoprecipitate at high quantities a large number of proteins” at mutant AKT1 (M227G) (lysate of mutant-AKT1-expressing HCT116 cells treated with the nanoparticle) and “not from that of wild-type-AKT1-expressing cells” at wild type AKT1 [3] (lysate of wild-type-AKT1-expressing HCT116 cells treated with the nanoparticle). The figures for the “thio-phosphorylation by Western blot with alkylated thiophosphate-tag antibody” value at AKT2 and at AKT2^M-G were “not those of WT-AKT transfected cells” and “detected thio-phosphorylation”, respectively.

(Values after patent US20230417751A1, “ANALYSIS OF PROTEIN KINASES IN LIVE CELLS” (Texas Tech University System, priority 2021, published 2023).)
